Values joined by “and” are separate entries in the source; they are usually repeats but may differ in a detail not shown here. Equal values may be shown once. After the bases stand the sugars from the 5' end (letter, count) and the backbone: PS all phosphorothioate, else s phosphorothioate and o phosphodiester by linkage. HELM strings list units from the 5' end as sugar, base in round brackets, then linkage (d deoxyribose, r ribose, m 2'-O-methyl, p phosphodiester). Methylation of C is not given here. [moe] = 2'-O-(2-methoxyethyl) (MOE); [cEt] = constrained ethyl (cEt); [sp] = phosphorothioate linkage; e = 2'-O-(2-methoxyethyl) (MOE); k = constrained ethyl (cEt); d = 2'-deoxy (DNA)
How the values were obtained:
IRF5 = settings: ASO, KARPAS-229, 4 µM
HBV = settings: ASO

GTTCTTGGACTCTCAA (sugars kkddddddddddkeke, PS)
target mRNA inhibition (IRF5): 27%

GTTCTTGGACTCTCAA (sugars kkdddddddddkekek, PS)
target mRNA inhibition (IRF5): 31%

RNA1{[moe](A)[sp].[cEt](A)[sp].[cEt](G)[sp].d(A)[sp].d(A)[sp].d(G)[sp].d(A)[sp].d(T)[sp].d(G)[sp].d(A)[sp].d(G)[sp].d(G)[sp].d(C)[sp].[cEt](A)[sp].[cEt](T)[sp].[moe](A)}$$$$V2.0
target mRNA inhibition (HBV; HepG2, 0.07 µM): 62% and 65%

RNA1{[moe](A)[sp].[cEt](A)[sp].[moe](G)[sp].[cEt](C)[sp].d(G)[sp].d(A)[sp].d(A)[sp].d(G)[sp].d(T)[sp].d(G)[sp].d(C)[sp].d(A)[sp].d(C)[sp].[moe](A)[sp].[moe](C)[sp].[moe](G)[sp].[moe](G)}$$$$V2.0
target mRNA inhibition (HBV; HepG2, 0.009375 µM): 29% | target mRNA inhibition (HBV; HepG2, 0.01875 µM): 30% | target mRNA inhibition (HBV; HepG2, 0.0375 µM): 41% | target mRNA inhibition (HBV; HepG2, 0.075 µM): 71% | target mRNA inhibition (HBV; HepG2, 0.15 µM): 86% | target mRNA inhibition (HBV; HepG2, 0.3 µM): 88%

RNA1{[moe](A)[sp].[cEt](A)[sp].d(C)[sp].d(C)[sp].d(A)[sp].d(C)[sp].d(T)[sp].d(G)[sp].d(A)[sp].d(A)[sp].d(C)[sp].d(A)[sp].[cEt](A)[sp].[moe](A)[sp].[cEt](T)[sp].[moe](G)}$$$$V2.0
target mRNA inhibition (HBV; HepG2, 0.07 µM): 55% and 38%

RNA1{[moe](A)[sp].[cEt](A)[sp].d(C)[sp].d(T)[sp].d(G)[sp].d(G)[sp].d(A)[sp].d(G)[sp].d(C)[sp].d(C)[sp].d(A)[sp].d(C)[sp].[cEt](C)[sp].[moe](A)[sp].[cEt](G)[sp].[moe](C)}$$$$V2.0
target mRNA inhibition (HBV; HepG2, 0.07 µM): 65% and 53%

RNA1{[moe](A)[sp].[cEt](C)[sp].[cEt](A)[sp].d(A)[sp].d(A)[sp].d(T)[sp].d(G)[sp].d(G)[sp].d(C)[sp].d(A)[sp].d(C)[sp].d(T)[sp].d(A)[sp].[cEt](G)[sp].[cEt](T)[sp].[moe](A)}$$$$V2.0
target mRNA inhibition (HBV; HepG2, 0.07 µM): 67% and 61%

RNA1{[moe](A)[sp].[cEt](C)[sp].d(C)[sp].d(A)[sp].d(A)[sp].d(T)[sp].d(T)[sp].d(T)[sp].d(A)[sp].d(T)[sp].d(G)[sp].d(C)[sp].[cEt](C)[sp].[moe](T)[sp].[cEt](A)[sp].[moe](C)}$$$$V2.0
target mRNA inhibition (HBV; HepG2, 0.07 µM): 40% and 51%

RNA1{[moe](A)[sp].[cEt](C)[sp].d(C)[sp].d(A)[sp].d(C)[sp].d(T)[sp].d(G)[sp].d(A)[sp].d(A)[sp].d(C)[sp].d(A)[sp].d(A)[sp].[cEt](A)[sp].[moe](T)[sp].[cEt](G)[sp].[moe](G)}$$$$V2.0
target mRNA inhibition (HBV; HepG2, 0.07 µM): 75% and 64%

RNA1{[moe](A)[sp].[cEt](G)[sp].[cEt](A)[sp].d(A)[sp].d(G)[sp].d(A)[sp].d(T)[sp].d(G)[sp].d(A)[sp].d(G)[sp].d(G)[sp].d(C)[sp].d(A)[sp].[cEt](T)[sp].[cEt](A)[sp].[moe](G)}$$$$V2.0
target mRNA inhibition (HBV; HepG2, 0.07 µM): 64% and 63%

RNA1{[moe](A)[sp].[cEt](G)[sp].[cEt](A)[sp].d(A)[sp].d(G)[sp].d(T)[sp].d(C)[sp].d(C)[sp].d(A)[sp].d(C)[sp].d(C)[sp].d(A)[sp].d(C)[sp].[cEt](G)[sp].[cEt](A)[sp].[moe](G)}$$$$V2.0
target mRNA inhibition (HBV; HepG2, 0.07 µM): 58% and 48%

RNA1{[moe](A)[sp].[cEt](G)[sp].[cEt](A)[sp].d(G)[sp].d(G)[sp].d(T)[sp].d(G)[sp].d(A)[sp].d(A)[sp].d(G)[sp].d(C)[sp].d(G)[sp].d(A)[sp].[cEt](A)[sp].[cEt](G)[sp].[moe](T)}$$$$V2.0
target mRNA inhibition (HBV; HepG2, 0.07 µM): 68% and 74%

RNA1{[moe](A)[sp].[cEt](G)[sp].[cEt](G)[sp].d(A)[sp].d(G)[sp].d(T)[sp].d(T)[sp].d(C)[sp].d(C)[sp].d(G)[sp].d(C)[sp].d(A)[sp].d(G)[sp].[cEt](T)[sp].[cEt](A)[sp].[moe](T)}$$$$V2.0
target mRNA inhibition (HBV; HepG2, 0.0092593 µM): 4% | target mRNA inhibition (HBV; HepG2, 0.0277778 µM): 35% | target mRNA inhibition (HBV; HepG2, 0.07 µM): 89% and 79% | target mRNA inhibition (HBV; HepG2, 0.0833333 µM): 70% | target mRNA inhibition (HBV; HepG2, 0.25 µM): 87%

RNA1{[moe](A)[sp].[cEt](G)[sp].[cEt](G)[sp].d(T)[sp].d(G)[sp].d(A)[sp].d(A)[sp].d(G)[sp].d(C)[sp].d(G)[sp].d(A)[sp].d(A)[sp].d(G)[sp].[cEt](T)[sp].[cEt](G)[sp].[moe](C)}$$$$V2.0
target mRNA inhibition (HBV; HepG2, 0.009375 µM): 21% | target mRNA inhibition (HBV; HepG2, 0.01875 µM): 30% | target mRNA inhibition (HBV; HepG2, 0.0375 µM): 39% | target mRNA inhibition (HBV; HepG2, 0.07 µM): 79% | target mRNA inhibition (HBV; HepG2, 0.075 µM): 61% | target mRNA inhibition (HBV; HepG2, 0.15 µM): 79% | target mRNA inhibition (HBV; HepG2, 0.3 µM): 91%

RNA1{[moe](A)[sp].[cEt](G)[sp].[cEt](T)[sp].d(T)[sp].d(C)[sp].d(C)[sp].d(G)[sp].d(C)[sp].d(A)[sp].d(G)[sp].d(T)[sp].d(A)[sp].d(T)[sp].[cEt](G)[sp].[cEt](G)[sp].[moe](A)}$$$$V2.0
target mRNA inhibition (HBV; HepG2, 0.0092593 µM): 12% | target mRNA inhibition (HBV; HepG2, 0.0277778 µM): 25% | target mRNA inhibition (HBV; HepG2, 0.0833333 µM): 73% | target mRNA inhibition (HBV; HepG2, 0.25 µM): 84%

RNA1{[moe](A)[sp].[cEt](G)[sp].d(C)[sp].d(G)[sp].d(A)[sp].d(A)[sp].d(G)[sp].d(T)[sp].d(G)[sp].d(C)[sp].d(A)[sp].d(C)[sp].[cEt](A)[sp].[moe](C)[sp].[cEt](G)[sp].[moe](G)}$$$$V2.0
target mRNA inhibition (HBV; HepG2, 0.0092593 µM): 24% | target mRNA inhibition (HBV; HepG2, 0.0277778 µM): 62% | target mRNA inhibition (HBV; HepG2, 0.07 µM): 86% and 88% | target mRNA inhibition (HBV; HepG2, 0.0833333 µM): 84% | target mRNA inhibition (HBV; HepG2, 0.25 µM): 91%

RNA1{[moe](A)[sp].[cEt](G)[sp].d(G)[sp].d(C)[sp].d(A)[sp].d(T)[sp].d(A)[sp].d(G)[sp].d(C)[sp].d(A)[sp].d(G)[sp].d(C)[sp].[cEt](A)[sp].[moe](G)[sp].[cEt](G)[sp].[moe](A)}$$$$V2.0
target mRNA inhibition (HBV; HepG2, 0.07 µM): 66% and 52%

Source: the OligoGym collection
